In patent publication US7227043B2, “2-phenyl-2-substituted-1,3-diketones” (Bayer CropScience Ag, priority 2002, dated 2007):

Columns and labels:
Format in all cases: in vivo
Botrytis cinerea = experiment: Botrytis test (bean)/protective; conditions: 48 h, protective, 2 days after inoculation, read-out: % efficacy
Description: Botrytis Test (Bean)/Protective
• Solvents: 24.5 parts by weight of acetone • 24.5 parts by weight of dimethylacetamide • Emulsifier: 1.0 part by weight of alkylaryl polyglycol ether
To produce a suitable preparation of active compound, 1 part by weight of active compound is mixed with the stated amounts of solvent and emulsifier, and the concentrate is diluted with water to the desired concentration.
To test for protective activity, young plants are sprayed with the preparation of active compound at the stated application rate. After the spray coating has dried on, 2 small pieces of agar colonized by Botrytis cinerea are placed on each leaf. The inoculated plants are placed in a dark chamber at about 20° C. and 100% relative atmospheric humidity.
2 days after the inoculation, the size of the infected areas on the leaves is evaluated. 0% means an efficacy which corresponds to that of the control, whereas an efficacy of 100% means that no infection is observed.

Plasmopara viticola = experiment: Plasmopara test (grapevine)/protective; conditions: 144 h, protective, 6 days after inoculation, read-out: % efficacy
Description: Plasmopara Test (Grapevine)/Protective […] To produce a suitable preparation of active compound, 1 part by weight of active compound is mixed with the stated amounts of solvent and emulsifier, and the concentrate is diluted with water to the desired concentration. To test for protective activity, young plants are sprayed with the preparation of active compound at the stated application rate. After the spray coating has dried on, the plants are inoculated with an aqueous spore suspension of Plasmopara viticola and then remain in an incubation cabin at about 20° C. and 100% relative atmospheric humidity for 1 day. […] The plants are then moistened and placed in an incubation cabin for 1 day.

[1] = system: larvae of the mustard beetle (Phaedon cochleariae); experiment: Phaedon larvae test; conditions: 500 ppm, cabbage leaves dipped
Description: (§1) Phaedon larvae Test • Solvent: 7 parts by weight of dimethylformamide • Emulsifier: 2 parts by weight of alkylaryl polyglycol ether To produce a suitable preparation of active compound, 1 part by weight of active compound is mixed with the stated amounts of solvent and emulsifier, and the concentrate is diluted with emulsifier-containing water to the desired concentration. Cabbage leaves (Brassica oleracea) are treated by being dipped into the preparation of active compound of the desired concentration and are populated with larvae of the mustard beetle (Phaedon cochleariae) while the leaves are still moist. After the desired period of time, the kill in % is determined. 100% means that all beetle larvae have been killed; 0% means that none of the beetle larvae have been killed.

Tetranychus urticae = experiment: Tetranychus test (OP-resistant/dip treatment); conditions: 100 ppm, bean plants dipped, OP-resistant
Description: Tetranychus Test (OP-Resistant/Dip Treatment)
• Solvent: 7 parts by weight of dimethylformamide • Emulsifier: 2 parts by weight of alkylaryl polyglycol ether
To produce a suitable preparation of active compound, 1 part by weight of active compound is mixed with the stated amounts of solvent and emulsifier, and the concentrate is diluted with emulsifier-containing water to the desired concentration.
Bean plants (Phaseolus vulgaris) which are heavily infested by all stages of the greenhouse […] spider mite (Tetranychus urticae) are dipped into a preparation of active compound of the desired concentration.
After the desired period of time, the effect in % is determined. 100% means that all spider mites have been killed; 0% means that none of the spider mites have been killed.

Sugar beet = experiment: Pre-emergence test, sugar beet; conditions: 250 g of ai/ha, after three weeks, 100% = total destruction
Description: (§2) • Solvent: 5 parts by weight of acetone • Emulsifier: 1 part by weight of alkylaryl polyglycol ether
(§3) To produce a suitable preparation of active compound, 1 part by weight of active compound is mixed with the stated amount of solvent, the stated amount of emulsifier is added and the concentrate is diluted with water to the desired concentration.
(§4) Seeds of the test plants are sown in normal soil. After about 24 hours, the soil is sprayed with the preparation of active compounds such that the particular amounts of active compound desired are applied per unit area. The concentration of the spray liquor is chosen such that the particular amounts of active compound desired are applied in 1000 l of water/ha.
(§5) After three weeks, the degree of damage to the plants is rated in % damage in comparison to the development of the untreated control.
(§6) The figures denote: • 0%=no effect (like untreated control) • 100%=total destruction

Setaria = experiment: Pre-emergence test, Setaria; conditions: 250 g of ai/ha, after three weeks, 100% = total destruction
Description: as §2, §3, §4, §5, §6

[2] = system: peach aphid (Myzus persicae); experiment: Myzus test; conditions: 500 ppm, cabbage leaves dipped
Description: as §1, with “Myzus” for “Phaedon larvae”, “oleracea) which are heavily infested by the peach aphid (Myzus persicae)” for “oleracea)”, “concentration.” for “concentration and are populated with larvae of the mustard beetle (Phaedon cochleariae) while the leaves are still moist.”, “aphids” for “beetle larvae”

Echinochloa = experiment: Pre-emergence test, Echinochloa; conditions: 250 g of ai/ha, after three weeks, 100% = total destruction
Description: as §2, §3, §4, §5, §6

Venturia inaequalis = experiment: Venturia test (apple)/protective; conditions: protective, 10 days after inoculation; for % efficacy: 100 g/ha
Description: Venturia Test (Apple)/Protective […] To produce a suitable preparation of active compound, 1 part by weight of active compound is mixed with the stated amounts of solvent and emulsifier, and the concentrate is diluted with water to the desired concentration. To test for protective activity, young plants are sprayed with the preparation of active compound at the stated application rate. After the spray coating has dried on, the plants are inoculated with an aqueous conidia suspension of the apple scab pathogen Venturia inaequalis and then remain in an incubation cabin at about 20° C. and 100% relative atmospheric humidity for 1 day.

Phytophthora infestans = conditions: 750 g/ha; protective; tomato; 7 days after inoculation
Meloidogyne incognita = experiment: Meloidogyne test; conditions: 20 ppm, lettuce in sand, 100% = no galls
Description: Meloidogyne Test • Solvent: 7 parts by weight of dimethylformamide • Emulsifier: 2 parts by weight of alkylaryl polyglycol ether To produce a suitable preparation of active compound, 1 part by weight of active compound is mixed with the stated amounts of solvent and emulsifier, and the concentrate is diluted with water to the desired concentration. Containers are filled with sand, solution of active compound, Meloidogyne incognita egg/larvae suspension and lettuce seeds. The lettuce seeds germinate and the plants develop. On the roots, galls are formed. After the desired period of time, the nematicidal action is determined in % by the gall formation. 100% means that no galls have been formed; 0% means that the number of galls on the treated plants corresponds to that of the untreated control.

Alopecurus = experiment: Pre-emergence test, Alopecurus; conditions: 250 g of ai/ha, after three weeks, 100% = total destruction
Description: as §2, §3, §4, §5, §6

[3] = system: caterpillars of the armyworm (Spodoptera frugiperda); experiment: Spodoptera frugiperda test; conditions: 500 ppm, cabbage leaves dipped
Description: as §1, with “Spodoptera frugiperda” for “Phaedon larvae”, “caterpillars” for “larvae”, “armyworm (Spodoptera frugiperda)” for “mustard beetle (Phaedon cochleariae)”, “caterpillars” for “beetle larvae”

Sphaerotheca fuliginea = experiment: Sphaerotheca test (cucumber)/protective; conditions: 100 g/ha, protective, 7 days after inoculation
Description: Sphaerotheca Test (Cucumber)/Protective […] To produce a suitable preparation of active compound, 1 part by weight of active compound is mixed with the stated amounts of solvent and emulsifier, and the concentrate is diluted with water to the desired concentration. To test for protective activity, young plants are sprayed with the preparation of active compound at the stated application rate. After the spray coating has dried on, the plants are inoculated with an aqueous spore suspension of Sphaerotheca fuliginea The plants are then placed in a greenhouse at about 23° C. and a relative atmospheric humidity of about 70%.

Cc1ccc(-c2ccc(Cl)cc2)cc1C1(Cl)C(=O)CC2(CCCCC2)C1=O (stereo not drawn) [Ex. I-1-1]
Emax at 100 g/ha (Botrytis cinerea): 96% | Emax at 100 g/ha (Plasmopara viticola): 100% | Kill rate in % after 7d [1]: 100% | Kill rate in % after 7d (Tetranychus urticae): 100% | % damage, Sugar beet (Sugar beet): 0% | % damage, Setaria (Setaria): 90% | Kill rate in % after 6d [2]: 80% | % damage, Echinochloa (Echinochloa): 100% | Emax at 100 g/ha (Venturia inaequalis; Venturia inaequalis, 240 h, read-out: % efficacy): 100%

Cc1ccc(-c2ccc(Cl)cc2)cc1C1(Cl)C(=O)CC2(CCCC2)C1=O (stereo not drawn) [Ex. I-1-3]
Efficacy in % (Phytophthora infestans): 80%

Cc1ccc(-c2ccc(Cl)cc2)cc1C1(Cl)C(=O)CC2(CCCCCC2)C1=O (stereo not drawn) [Ex. I-1-4]
Efficacy in % (Phytophthora infestans): 90%

CC1(C)CC(=O)C(Cl)(c2cc(-c3ccc(Cl)cc3)ccc2Cl)C(=O)C1 [Ex. I-2-1]
Kill rate in % after 7d [1]: 100% | Kill rate in % after 7d (Tetranychus urticae): 100% | Effect in % after 14d (nematicidal action by gall formation) (Meloidogyne incognita): 90% | % damage, Sugar beet (Sugar beet): 0% | % damage, Setaria (Setaria): 80% | % damage, Alopecurus (Alopecurus): 70% | Efficacy in % (Phytophthora infestans): 89% | Kill rate in % after 7d [3]: 100% | % damage, Echinochloa (Echinochloa): 90% | % efficacy (Venturia inaequalis): 73% | % efficacy (Sphaerotheca fuliginea): 97%

Cc1ccc(-c2ccc(Cl)cc2)cc1C1(Cl)C(=O)CC2(CCCC2)CC1=O [Ex. I-2-2]
Kill rate in % after 7d [1]: 100% | Kill rate in % after 7d (Tetranychus urticae): 98% | % damage, Sugar beet (Sugar beet): 0% | % damage, Setaria (Setaria): 90% | % damage, Alopecurus (Alopecurus): 90% | Kill rate in % after 7d [3]: 100% | % damage, Echinochloa (Echinochloa): 95%

Cc1ccc(-c2ccc(Cl)cc2)cc1C1(Cl)C(=O)CC(C)(C)CC1=O [Ex. I-2-3]
Kill rate in % after 7d [1]: 100% | Kill rate in % after 7d (Tetranychus urticae): 100% | % damage, Sugar beet (Sugar beet): 0% | % damage, Setaria (Setaria): 90% | % damage, Alopecurus (Alopecurus): 80% | Kill rate in % after 7d [3]: 100% | % damage, Echinochloa (Echinochloa): 80% | % efficacy (Venturia inaequalis): 86%

O=C1CC2(CCCC2)CC(=O)C1(Cl)c1cc(Br)ccc1Cl [Ex. I-2-4]
Kill rate in % after 7d (Tetranychus urticae): 80%

O=C1CC2(CCCC2)CC(=O)C1(Cl)c1cc(-c2ccc(Cl)cc2)ccc1Cl [Ex. I-2-5]
Kill rate in % after 7d [1]: 100% | Kill rate in % after 7d (Tetranychus urticae): 98% | Kill rate in % after 7d [3]: 100%

CC(C)C1CC(=O)C(Cl)(c2cc(Br)ccc2Cl)C(=O)C1 (stereo not drawn) [Ex. I-2-6]
Effect in % after 14d (nematicidal action by gall formation) (Meloidogyne incognita): 80%
